Laboratory results from PubChem BioAssay AID280 (DTP/NCI, 2004).
Values joined by “and” are separate entries in the source; they are usually repeats but may differ in a detail not shown here. Identical values can stand only once. Toxic doses and inconclusive results are not listed. How the source made its calls: active means survival T/C of 150% or more; inactive means T/C below 125% in these data.

System: nude mice, LOX melanoma ip, survival T/C
Assay: NCI In Vivo Anticancer Drug Screen. Data for tumor model Human Amelanotic Melanoma (LOX) (intraperitoneal) in NU/NU BALB/C (nude) mice
Conditions: endpoint: median survival time, schedule: Q04DX003 (ip), higher = longer survival
Experimental: The antitumor activity of compounds was measured in mice bearing transplantable tumors. Survival or tumor size were measured and the results are expressed as the measurement made in the treated group (T) divided by the measurement made in the vehicle treated control group (C). The tumor model used in this assay is Human Amelanotic Melanoma (LOX) (intraperitoneal) in NU/NU BALB/C (nude) mice

[1] = dose: 6.25 mg/kg/injection, vehicle: saline with Tween-80
[2] = dose: 12.5 mg/kg/injection, vehicle: saline with Tween-80
[3] = dose: 25.0 mg/kg/injection, vehicle: saline with Tween-80
[4] = dose: 50.0 mg/kg/injection, vehicle: saline with Tween-80
[5] = dose: 100.0 mg/kg/injection, vehicle: saline with Tween-80
[6] = dose: 75.0 mg/kg/injection, vehicle: saline with Tween-80
[7] = dose: 600.0 mg/kg/injection, vehicle: saline with Tween-80
[8] = dose: 50.0 mg/kg/injection, vehicle: Klucel (hydroxypropylcellulose) (HPC)
[9] = dose: 100.0 mg/kg/injection, vehicle: Klucel (hydroxypropylcellulose) (HPC)
[10] = dose: 200.0 mg/kg/injection, vehicle: Klucel (hydroxypropylcellulose) (HPC)
[11] = dose: 400.0 mg/kg/injection, vehicle: Klucel (hydroxypropylcellulose) (HPC)
[12] = dose: 15.0 mg/kg/injection, vehicle: saline with Tween-80
[13] = dose: 30.0 mg/kg/injection, vehicle: saline with Tween-80
[14] = dose: 60.0 mg/kg/injection, vehicle: saline with Tween-80
[15] = dose: 120.0 mg/kg/injection, vehicle: saline with Tween-80
[16] = dose: 200.0 mg/kg/injection, vehicle: saline with Tween-80
[17] = dose: 75.0 mg/kg/injection, vehicle: suspension in saline
[18] = dose: 150.0 mg/kg/injection, vehicle: suspension in saline
[19] = dose: 300.0 mg/kg/injection, vehicle: suspension in saline
[20] = dose: 600.0 mg/kg/injection, vehicle: suspension in saline

Measured: T/C

[CH3][Sn]([CH3])([Cl])[S]CCN
inactive: [1] 101 % of control | [2] 109 % of control | [3] 105 % of control | [4] 115 % of control | [5] 103 % of control

C/C(=N\NC(=S)N1CC2CCC(CC2)C1)c1cccc(C)n1
inactive: [1] 105 % of control | [2] 109 % of control | [3] 103 % of control | [4] 120 % of control | [5] 109 % of control

COc1cc(C(C)c2cc3c(cc2OCCO)OCO3)cc(OC)c1OC (centres undefined)
active: [7] 152 % of control
inactive: [6] 114 % of control | dose: 150.0 mg/kg/injection, vehicle: saline with Tween-80 94 % of control

CN(C)CN1C(=O)S/C(=C2\C(=O)N(CN(C)C)c3ccccc32)C1=O
inactive: [8] 119 % of control and 101 % of control | [9] 110 % of control and 97 % of control | [10] 108 % of control and 97 % of control

COc1ccc2[nH]c3ccc4cc[n+](CCN5CCC(C6CCN(CC[n+]7ccc8ccc9[nH]c%10ccc(OC)cc%10c9c8c7)CC6)CC5)cc4c3c2c1
active: dose: 4.0 mg/kg/injection, vehicle: water 153 % of control | dose: 13.7 mg/kg/injection, vehicle: water 156 % of control | dose: 16.0 mg/kg/injection, vehicle: water 176 % of control | dose: 22.8 mg/kg/injection, vehicle: water 176 % of control | dose: 23.04 mg/kg/injection, vehicle: water 203 % of control | dose: 32.0 mg/kg/injection, vehicle: water 187 % of control | dose: 38.0 mg/kg/injection, vehicle: water 207 % of control | dose: 38.4 mg/kg/injection, vehicle: water 223 % of control | dose: 64.0 mg/kg/injection, vehicle: water 192 % of control

O=NNc1cccnc1
inactive: dose: 6.25 mg/kg/injection, vehicle: water 100 % of control and 101 % of control | dose: 12.5 mg/kg/injection, vehicle: water 109 % of control and 101 % of control | dose: 25.0 mg/kg/injection, vehicle: water 113 % of control and 98 % of control | dose: 50.0 mg/kg/injection, vehicle: water 114 % of control and 96 % of control | dose: 100.0 mg/kg/injection, vehicle: water 103 % of control and 117 % of control

Cc1cc(N/N=C/c2ccccn2)nc2ccccc12
inactive: dose: 75.0 mg/kg/injection, vehicle: Klucel (hydroxypropylcellulose) (HPC) 107 % of control | dose: 150.0 mg/kg/injection, vehicle: Klucel (hydroxypropylcellulose) (HPC) 107 % of control

COC(=O)C1(F)C(=O)NC(=O)NC1OC (centres undefined)
inactive: [8] 110 % of control | [9] 98 % of control | [10] 92 % of control | [11] 104 % of control | dose: 800.0 mg/kg/injection, vehicle: Klucel (hydroxypropylcellulose) (HPC) 94 % of control

C=COC(=O)C(Cc1ccccc1)NC(=O)OCc1ccccc1 (centres undefined)
inactive: dose: 7.5 mg/kg/injection, vehicle: saline with Tween-80 97 % of control | [12] 101 % of control | [13] 105 % of control | [14] 95 % of control | [6] 89 % of control | [15] 104 % of control

CN=C(N)N/N=C(\C)c1ccc2sc3ccc(/C(C)=N/NC(N)=NC)cc3c2c1
inactive: dose: 37.5 mg/kg/injection, vehicle: saline with Tween-80 121 % of control | [6] 117 % of control | [7] 116 % of control
active: dose: 300.0 mg/kg/injection, vehicle: saline with Tween-80 182 % of control

O=C(O)C1CC(O)CN1 (centres undefined)
inactive: dose: 75.0 mg/kg/injection, vehicle: saline 108 % of control | dose: 300.0 mg/kg/injection, vehicle: saline 112 % of control | dose: 600.0 mg/kg/injection, vehicle: saline 107 % of control | dose: 1200.0 mg/kg/injection, vehicle: saline 114 % of control

COc1ccc(OC)c(Cc2cnc3nc(N)nc(N)c3c2C)c1
inactive: dose: 7.5 mg/kg/injection, vehicle: water 99 % of control | dose: 15.0 mg/kg/injection, vehicle: water 105 % of control | dose: 30.0 mg/kg/injection, vehicle: water 101 % of control | dose: 37.5 mg/kg/injection, vehicle: water 91 % of control | dose: 60.0 mg/kg/injection, vehicle: water 107 % of control | dose: 75.0 mg/kg/injection, vehicle: water 88 % of control

Cc1nc2c(N)cc(Cl)cc2[nH]1
inactive: [4] 114 % of control | [5] 112 % of control | [16] 99 % of control

N#Cc1c(N)[nH]c2ccc(Sc3ccccc3)cc12
inactive: [12] 99 % of control | [13] 89 % of control | [14] 94 % of control | [15] 104 % of control | dose: 240.0 mg/kg/injection, vehicle: saline with Tween-80 124 % of control

NC(=O)C1C=CN(Cc2ccccc2)C=C1
inactive: [4] 112 % of control | [5] 117 % of control | [16] 123 % of control

COc1ccc(N=N/N=c2\sc3cc(OC)ccc3n2C)cc1
inactive: [12] 121 % of control | [13] 117 % of control | [15] 121 % of control

NC(Cn1ccc(=O)c(O)c1)C(=O)O (centres undefined)
inactive: [17] 105 % of control | [18] 105 % of control | [19] 109 % of control | [20] 100 % of control | dose: 1200.0 mg/kg/injection, vehicle: suspension in saline 104 % of control

CN(C)C(=O)Nc1ccc(Cl)cc1
inactive: [17] 118 % of control | [18] 102 % of control | [19] 102 % of control | [20] 102 % of control

CC[C@@]1(O)C[C@H](OC2CC(N(C)C)C(OC3CC4OC5CC(=O)C(C)OC5OC4C(C)O3)C(C)O2)c2c(O)c3c(c(O)c2[C@H]1OC1CC(N(C)C)C(O)C(C)O1)C(=O)c1cccc(O)c1C3=O (some centres undefined)
inactive: dose: 63.0 micrograms/kg/injection, vehicle: saline 115 % of control | dose: 125.0 micrograms/kg/injection, vehicle: saline 111 % of control | dose: 250.0 micrograms/kg/injection, vehicle: saline 108 % of control and 94 % of control

COc1cc2c(c3c1c(=O)c1ccccc1n3C)C=CC(C)(C)O2
inactive: dose: 12.5 mg/kg/injection, vehicle: Klucel (hydroxypropylcellulose) (HPC) 104 % of control | dose: 25.0 mg/kg/injection, vehicle: Klucel (hydroxypropylcellulose) (HPC) 107 % of control and 97 % of control | [8] 107 % of control | [9] 87 % of control

COc1ccc2c(ccc3oc([N+](=O)[O-])cc32)c1
active: dose: 120.0 mg/kg/injection, vehicle: Klucel (hydroxypropylcellulose) (HPC) 170 % of control
inactive: [9] 121 % of control | [11] 86 % of control

O=C1C2=C(C(=O)c3ncccc31)C1C=CC2CC1 (centres undefined)
inactive: dose: 25.0 mg/kg/injection, vehicle: DMSO 99 % of control | dose: 50.0 mg/kg/injection, vehicle: DMSO 103 % of control | dose: 100.0 mg/kg/injection, vehicle: DMSO 99 % of control | dose: 200.0 mg/kg/injection, vehicle: DMSO 89 % of control
